Measured values: patent US20230357261A1, “ARYL HYDROCARBON RECEPTOR LIGANDS AND THEIR ANALOGUES FOR THE PREVENTION AND TREATMENT OF INFLAMMATORY DISORDERS” (The Johns Hopkins University, priority 2020, published 2023)

Key:
AHR = AHR activation in IEC-6 enterocytes (Cyp1a1 expression); type: cell-based, rat; details: exposed to amniotic fluid, breast milk and serum harvested from pregnant mice administered I3C vs control diet
Method: The intestinal epithelial cells line IEC-6 (ATCC CRL-1592) was stably transduced with lentiviral particles containing Cignal Lenti XRE Reporter (luc) (Qiagen). Cells were treated serially with individual chemicals contained within the Johns Hopkins Drug Library (JHDL), which contains a series of FDA-approved drugs, Chong et al., 2006, (kindly provided by Dr. Jun O. Liu, Johns Hopkins University) at 10 μM for 24 hours, and the luciferase activity was quantified using the SpectraMax M3 (Molecular Devices).
Total RNA was isolated using the RNeasy mini kit (Qiagen) and complementary DNA was synthesized from 0.5 μg RNA using QuantiTect Reverse Transcription kit (Qiagen) following the manufacturer's protocols. The mRNA quantification was performed on the Bio-Rad CFX96 Real-Time System (Bio-Rad) using iTaq™ universal SYBR® Green supermix (Bio-Rad) and the primers listed in Table 1. The relative mRNA expression levels were normalized against the expression of the housekeeping gene ribosomal protein lateral stalk subunit P0 (Rplp0). For microRNA isolation, freshly harvested, snap-frozen ileal tissue was subjected to total RNA isolation using the RNeasy plus universal mini kit (Qiagen) and miRNA was quantified using miScript PCR starter kit (Qiagen) following the manufacturer's protocols. The relative miRNA expression levels were normalized against the expression of housekeeping miRNA miR-191.

TLR4 = TLR4 signaling and Tlr4 expression in newborn mouse ileum in vivo (endotoxemia model, LPS)
Method: Endotoxemia was induced in neonatal mouse pups (p11) by administering 5 mg/kg lipopolysaccharides (LPS) via intraperitoneal injection, and ileal samples were harvested 6 hours after LPS treatments. […] I3C and A18 were administered to the pregnant mother daily until the offspring were studied further for experimental NEC or endotoxemia as above. […] The mRNA quantification was performed on the Bio-Rad CFX96 Real-Time System (Bio-Rad) using iTaqTM universal SYBR® Green supermix (Bio-Rad) and the primers listed in Table 1. The relative mRNA expression levels were normalized against the expression of the housekeeping gene ribosomal protein lateral stalk subunit P0 (Rplp0). For microRNA isolation, freshly harvested, snap-frozen ileal tissue was subjected to total RNA isolation using the RNeasy plus universal mini kit (Qiagen) and miRNA was quantified using miScript PCR starter kit (Qiagen) following the manufacturer's protocols. The relative miRNA expression levels were normalized against the expression of housekeeping miRNA miR-191.

OCc1c[nH]c2ccccc12 [I3C, indole-3-carbinol]
Cyp1a1 expression in cultured IEC-6 enterocytes (AHR): significantly increased the expression of Cyp1a1 | TLR4 signaling (LPS-induced Tnfa) in the intestine (TLR4; Ahr^−/− mice, I3C): did not reduce | Tlr4 expression in the intestinal mucosa (TLR4; Ahr^−/− mice, I3C): did not reduce | induction of the proinflammatory cytokine 116 in the neonatal (p11) mouse intestine in response to LPS (TLR4; maternal administration of I3C, vs pups from non I3C-treated mothers): significantly reduced the induction of the proinflammatory cytokine 116 | Tlr4 expression in the intestinal mucosa / newborn ileum (TLR4; wild-type mice, fed I3C or A18): reduced expression of Tlr4 | LPS-induced Tnfa expression (TLR4 signaling) in the intestine (TLR4; wild-type p11 mice fed I3C): reduced LPS-induced Tnfa expression
